Results published in ChEMBL document CHEMBL1201862, “PubChem BioAssay data set” (2004).
Activity calls are given as the source filed them.

Assays:
[1] = molecular target: T1, Calpain-2 catalytic subunit (Sus scrofa, UniProt P43367); assay: pig calpain II inhibitor potency, dose response, biochemical, fluorogenic peptide substrate (AID 1420); assay type: functional
T1 sequence (P43367 whole entry): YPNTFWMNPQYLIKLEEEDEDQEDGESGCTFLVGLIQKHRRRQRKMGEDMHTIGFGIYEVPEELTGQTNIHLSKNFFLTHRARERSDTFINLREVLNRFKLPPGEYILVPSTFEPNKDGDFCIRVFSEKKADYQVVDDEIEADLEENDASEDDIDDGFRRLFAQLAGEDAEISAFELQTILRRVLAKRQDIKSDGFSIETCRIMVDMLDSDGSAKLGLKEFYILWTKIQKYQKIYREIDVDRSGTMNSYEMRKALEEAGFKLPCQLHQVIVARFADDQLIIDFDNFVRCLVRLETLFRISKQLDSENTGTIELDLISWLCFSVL

[2] = system: H9c2; assay: cells; assay type: functional, cell-based; conditions: Rattus norvegicus, H9c2, Myocardium;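 note: confirmatory concentration-response retest of ultra-high-throughput screening hits for modulation of myocardial damage; cell death induced by hydrogen peroxide oxidative stress; compound pretreatment for 60 min then peroxide exposure for 2 h; potency is for protecting the cells against peroxide damage rather than for killing them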
[3] = molecular target: T2, Short transient receptor potential channel 4 (Mus musculus, UniProt Q9QUQ5); assay: mouse TRPC4 channel activators, dose response, cell-based, HEK293 TRPC4/mu-opioid, Fluo-4 calcium (AID 434937); assay type: functional
T2 sequence (Q9QUQ5 whole entry): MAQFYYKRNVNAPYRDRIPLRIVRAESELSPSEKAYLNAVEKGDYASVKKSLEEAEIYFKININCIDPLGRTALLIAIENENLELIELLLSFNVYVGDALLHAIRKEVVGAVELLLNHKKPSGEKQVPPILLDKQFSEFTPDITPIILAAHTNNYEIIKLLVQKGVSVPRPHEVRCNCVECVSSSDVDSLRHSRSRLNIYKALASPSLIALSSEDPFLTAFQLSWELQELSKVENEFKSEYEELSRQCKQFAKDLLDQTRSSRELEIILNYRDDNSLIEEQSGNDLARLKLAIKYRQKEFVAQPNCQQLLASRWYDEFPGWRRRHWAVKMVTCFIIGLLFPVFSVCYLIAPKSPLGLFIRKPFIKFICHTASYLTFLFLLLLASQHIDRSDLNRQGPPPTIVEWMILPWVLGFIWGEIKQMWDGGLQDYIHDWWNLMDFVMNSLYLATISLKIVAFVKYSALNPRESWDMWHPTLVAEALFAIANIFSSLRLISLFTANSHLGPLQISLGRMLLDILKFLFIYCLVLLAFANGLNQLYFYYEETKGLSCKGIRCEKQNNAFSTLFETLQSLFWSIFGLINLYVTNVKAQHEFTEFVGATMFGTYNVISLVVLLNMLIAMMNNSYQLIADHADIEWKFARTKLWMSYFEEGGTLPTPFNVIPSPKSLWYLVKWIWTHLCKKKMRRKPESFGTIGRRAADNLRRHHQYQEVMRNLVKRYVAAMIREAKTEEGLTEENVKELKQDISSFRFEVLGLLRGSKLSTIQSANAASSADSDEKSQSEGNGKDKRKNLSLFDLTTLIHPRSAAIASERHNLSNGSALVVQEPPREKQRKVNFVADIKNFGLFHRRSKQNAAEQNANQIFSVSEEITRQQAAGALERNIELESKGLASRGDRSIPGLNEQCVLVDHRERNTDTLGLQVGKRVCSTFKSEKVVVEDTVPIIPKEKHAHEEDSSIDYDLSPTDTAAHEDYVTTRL

[4] = molecular target: Genome polyprotein (dengue virus type 2, UniProt P29990); assay: Dengue-2 NS5 methyltransferase inhibitors, primary screen, biochemical, confirmation dose response (AID 588689); assay type: functional
Genome polyprotein, sequence (P29990 2492-3391 limits assumed): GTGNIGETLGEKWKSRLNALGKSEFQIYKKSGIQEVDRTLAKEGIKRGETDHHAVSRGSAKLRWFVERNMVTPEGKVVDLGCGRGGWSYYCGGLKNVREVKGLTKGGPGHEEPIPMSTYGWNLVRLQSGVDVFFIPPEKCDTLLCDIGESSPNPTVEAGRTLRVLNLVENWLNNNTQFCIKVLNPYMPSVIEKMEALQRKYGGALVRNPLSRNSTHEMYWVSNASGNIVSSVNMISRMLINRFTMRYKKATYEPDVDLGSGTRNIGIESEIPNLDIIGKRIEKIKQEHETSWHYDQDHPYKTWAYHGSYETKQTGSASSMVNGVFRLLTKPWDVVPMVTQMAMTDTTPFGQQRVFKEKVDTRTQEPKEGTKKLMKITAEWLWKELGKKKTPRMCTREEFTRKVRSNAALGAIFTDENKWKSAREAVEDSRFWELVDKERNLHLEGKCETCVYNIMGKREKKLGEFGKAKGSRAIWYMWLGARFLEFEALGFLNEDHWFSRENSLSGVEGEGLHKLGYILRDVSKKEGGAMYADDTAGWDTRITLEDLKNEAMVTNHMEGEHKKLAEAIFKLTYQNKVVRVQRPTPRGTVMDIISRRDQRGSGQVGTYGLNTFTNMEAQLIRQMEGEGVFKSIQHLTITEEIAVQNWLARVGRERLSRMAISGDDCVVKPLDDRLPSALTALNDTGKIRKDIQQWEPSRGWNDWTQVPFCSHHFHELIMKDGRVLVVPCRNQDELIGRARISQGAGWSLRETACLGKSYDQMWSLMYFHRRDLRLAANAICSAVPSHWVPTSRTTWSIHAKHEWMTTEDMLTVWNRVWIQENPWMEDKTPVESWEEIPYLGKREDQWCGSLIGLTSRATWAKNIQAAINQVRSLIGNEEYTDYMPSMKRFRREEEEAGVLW

[5] = molecular target: T3, Carboxy-terminal domain RNA polymerase II polypeptide A small phosphatase 1 (Homo sapiens, UniProt Q9GZU7); assay: inhibitors of CTDSP1, concentration-response testing, biochemical assay, absorbance-based, actives from ultra-high-throughput screening (AID 540297); assay type: functional
T3 sequence (Q9GZU7 whole entry): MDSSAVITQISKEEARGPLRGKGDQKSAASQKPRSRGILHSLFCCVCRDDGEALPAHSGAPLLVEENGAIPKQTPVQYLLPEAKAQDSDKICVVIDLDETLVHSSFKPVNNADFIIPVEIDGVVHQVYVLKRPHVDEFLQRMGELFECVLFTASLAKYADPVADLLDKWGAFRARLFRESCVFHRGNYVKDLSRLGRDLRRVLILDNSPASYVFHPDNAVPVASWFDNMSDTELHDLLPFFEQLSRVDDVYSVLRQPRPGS

[6] = inhibitors of intracellular T. cruzi replication, confirmation, NIH3T3 host cells, beta-gal luminescence (AID 2044); assay type: functional, cell-based;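 note: intracellular parasites grown in NIH/3T3 mouse fibroblasts as host cells; luminescent beta-galactosidase reporter signal from transgenic T. cruzi replicating inside host cells; inhibitors lower the luminescence signal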
[7] = cytotoxicity toward NIH3T3 fibroblasts, dose response, counter-screen, cell-based, ATP luminescence, mouse fibroblasts (AID 2010); assay type: functional;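 note: cells exposed to compound for about 90 hours before reading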
[8] = THP-1 cell cytotoxicity, dose response, cytotoxicity control for non-replicating M. tuberculosis project (AID 489025); assay type: functional
[9] = Vero E6 cell cytotoxicity, dose response, cytotoxicity control for non-replicating M. tuberculosis project, secondary assay (AID 492998); assay type: functional, VeroE6; conditions: Vero C1008
[10] = cells; assay type: functional
[11] = inhibitors of firefly luciferase expression or activity, dose response, H4 neuroglioma cells, luminescence (AID 1990); assay type: functional, cell-based
[12] = system: Streptococcus sp. 'group A'; assay: growth inhibition of control SK(-) GAS strain, dose response, counter-screen for streptokinase expression inhibitor project, luminescence, kanamycin, BacTiterGlo, confirmation (AID 1900); assay type: functional, organism-based
[13] = Luminescence Cell-Based Dose Response HTS to Identify Inhibitors of 5'UTR Stem-Loop Driven Prion Protein mRNA Translation in H4 Neuroglioblastoma Cells. [Related pubchem assays: 1827 (Project Summary), 1813 (Primary HTS)]; assay type: functional
[14] = inhibitors of SNCA 5'UTR-driven reporter translation, confirmation, H4 neuroglioma cells, luminescence (AID 1988); assay type: functional, cell-based
[15] = system: Streptococcus; assay: Group A Streptococcus viability loss, dose response, counter-screen for streptokinase expression inhibitor project, luminescence, BacTiterGlo (AID 1915); assay type: functional, organism-based;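 note: potency for reduction of bacterial viability or growth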
[16] = molecular target: T4, Heat shock factor protein 1 (Mus musculus, UniProt P38532); assay: HSF1 potentiators in luciferase reporter cells, confirmation, cell-based, NIH3T3, luminescence, dose retest (AID 435004); assay type: functional;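 note: stress induced by proteasome inhibitor MG132 added 30 min after compound; luciferase reporter driven by HSF1 response element in NIH3T3 cells; actives raise luminescence as potentiators of the MG132 stress response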
T4 sequence (P38532 whole entry): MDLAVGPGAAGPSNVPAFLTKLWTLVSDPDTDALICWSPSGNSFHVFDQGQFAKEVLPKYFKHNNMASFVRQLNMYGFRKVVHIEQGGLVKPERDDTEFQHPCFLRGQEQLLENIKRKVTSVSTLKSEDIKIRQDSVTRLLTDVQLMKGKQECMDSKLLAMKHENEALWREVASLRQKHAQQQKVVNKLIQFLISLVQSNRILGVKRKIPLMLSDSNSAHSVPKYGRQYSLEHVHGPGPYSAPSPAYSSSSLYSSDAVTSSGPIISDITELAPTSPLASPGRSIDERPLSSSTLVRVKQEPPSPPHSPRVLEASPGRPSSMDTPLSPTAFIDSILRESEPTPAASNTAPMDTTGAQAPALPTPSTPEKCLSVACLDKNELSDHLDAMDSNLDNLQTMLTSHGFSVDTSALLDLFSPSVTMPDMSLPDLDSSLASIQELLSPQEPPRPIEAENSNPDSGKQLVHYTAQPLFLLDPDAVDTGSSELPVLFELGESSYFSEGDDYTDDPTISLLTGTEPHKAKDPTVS

[17] = NIH-3T3 fibroblast cytotoxicity, dose response, cytotoxicity control, cell-based, fluorescence, Alamar Blue, secondary assay (AID 2327); assay type: functional;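 note: NIH-3T3 mouse fibroblasts cultured with fluconazole at 8 µg/mL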
[18] = C. albicans growth with fluconazole, confirmation, fluorescence, retest (AID 2467); assay type: functional, cell-based
[19] = molecular target: T5, Ubiquitin-conjugating enzyme E2 N (Homo sapiens, UniProt P61088); assay type: functional;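 note: Dose-response confirmation in a TR-FRET assay detecting UBC13-driven polyubiquitin chain formation, inhibition measured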
T5 sequence (P61088 whole entry): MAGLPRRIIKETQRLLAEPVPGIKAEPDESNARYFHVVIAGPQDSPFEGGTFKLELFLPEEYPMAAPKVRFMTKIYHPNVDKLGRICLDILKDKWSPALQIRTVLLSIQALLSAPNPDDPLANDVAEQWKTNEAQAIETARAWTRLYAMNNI

[20] = molecular target: T6, DNA repair protein RAD52 homolog (Homo sapiens, UniProt P43351); assay type: functional, biochemical
T6 sequence (P43351 whole entry): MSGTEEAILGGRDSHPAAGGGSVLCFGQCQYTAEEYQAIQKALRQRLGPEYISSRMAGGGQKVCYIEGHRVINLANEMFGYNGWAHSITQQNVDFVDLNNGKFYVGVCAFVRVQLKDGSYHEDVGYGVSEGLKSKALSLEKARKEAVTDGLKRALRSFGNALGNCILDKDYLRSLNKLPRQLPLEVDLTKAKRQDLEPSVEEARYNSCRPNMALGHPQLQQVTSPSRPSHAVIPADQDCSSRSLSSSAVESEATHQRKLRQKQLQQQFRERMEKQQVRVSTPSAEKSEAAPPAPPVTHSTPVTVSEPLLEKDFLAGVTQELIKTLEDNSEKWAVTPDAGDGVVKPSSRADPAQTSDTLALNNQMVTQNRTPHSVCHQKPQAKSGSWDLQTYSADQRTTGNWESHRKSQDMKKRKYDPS

[21] = molecular target: Paired box protein Pax-8 (Homo sapiens, UniProt Q06710); assay: inhibitors of PAX8-driven TPO luciferase reporter, dose response, RMG-I cells, cherry-pick (AID 687027); assay type: functional, cell-based;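 note: luciferase reporter driven by Pax8 target thyroperoxidase promoter measured by SteadyGlo luminescence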
Paired box protein Pax-8, sequence (Q06710 whole entry): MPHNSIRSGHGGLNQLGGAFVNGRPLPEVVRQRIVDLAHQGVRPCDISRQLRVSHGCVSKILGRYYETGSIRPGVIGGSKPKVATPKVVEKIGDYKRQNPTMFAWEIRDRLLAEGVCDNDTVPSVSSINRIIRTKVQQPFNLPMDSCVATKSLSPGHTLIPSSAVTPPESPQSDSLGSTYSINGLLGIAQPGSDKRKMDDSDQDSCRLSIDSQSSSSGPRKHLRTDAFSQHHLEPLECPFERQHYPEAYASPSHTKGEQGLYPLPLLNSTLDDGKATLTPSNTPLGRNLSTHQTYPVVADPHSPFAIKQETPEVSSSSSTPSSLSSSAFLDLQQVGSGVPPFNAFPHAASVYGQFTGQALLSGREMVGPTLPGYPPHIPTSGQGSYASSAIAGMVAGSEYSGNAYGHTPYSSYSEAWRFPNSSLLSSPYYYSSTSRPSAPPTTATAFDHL

[22] = cytotoxicity in OVCAR8 ovarian cancer cells, dose response, PAX8 project, cell-based, plate reader, dry powder samples (AID 743197); assay type: functional; conditions: OVCAR-8

Cc1csc2ncnc(N3CCN(C(=O)Nc4ccc(OC(F)(F)F)cc4)CC3)c12
IC50 [1]: 6.79 µM (not active)

CN(C(=O)COC(=O)c1cnc(Cl)c(Cl)c1)C1CCS(=O)(=O)C1 (stereo not given)
IC50 [1]: 3.14 µM (not active)

CC1(C)CC2CC(C)(CN2C(=O)COC(=O)Cn2[nH]c(=O)c3ccccc3c2=O)C1 (stereo not given)
IC50 [2]: 12.1 µM (active)

COc1cc(Br)cc(CNc2ccc(F)c([N+](=O)[O-])c2)c1O
IC50 [1]: 2.79 µM (active)

O=C(NCCCN1CCN(CCCNC(=O)c2ccc3c(c2)OCO3)CC1)c1ccc2c(c1)OCO2
EC50 [3]: 0.267 µM (active)

O=C(CN1C(=O)/C(=C2/SC(=S)N(CCS(=O)(=O)O)C2=O)c2ccccc21)Nc1cccc(Br)c1
IC50 [4]: 61.6 µM (active)
IC50 [5]: 3.22 µM (active)

COc1cc(Nc2nc3ccccc3n3nnnc23)cc(OC)c1OC
IC50 [2]: > 79 µM (inactive)

Clc1cccc(OCCN2CCNCC2)c1
EC50 [6]: 0.744 µM (active)
EC50 [7]: > 60 µM (not active)
EC50 [3]: 0.841 µM (active)

Cc1cc(N2CCN(c3ccccc3)CC2)nc(-n2nc(C)cc2C)n1
CC50 [8]: > 40 µM (active)
CC50 [9]: > 20 µM (active)
IC50 [10]: 0.94 µM (active)

CCCOc1ccc(C(=O)NNC(=S)NC(=O)c2ccccc2)cc1
EC50 [11]: 12.5 µM (active)
EC50 [12]: 0.54 µM (active)
EC50 [13]: 14.5 µM (active)
EC50 [14]: > 120 µM (not active)
EC50 [15]: 0.762 µM (active)
EC50 [3]: 3.35 µM (active)

CC1(C)OC(=O)C(=Cc2ccc(-c3ccc(Cl)c(C(=O)O)c3)o2)C(=O)O1
IC50 [5]: 4.62 µM (active)

CSc1ccc(CCNC(=O)CSc2ccsc2[N+](=O)[O-])cc1
IC50 [5]: 7.88 µM (active)

COc1cccc(NC(=O)CC2SC(Nc3ccccc3)=NC2=O)c1 (stereo not given)
IC50 [1]: > 50 µM (not active)

CCCN1C(=O)c2ccccc2NC1c1ccc(Cl)c(Cl)c1 (stereo not given)
EC50 [11]: 16 µM (active)
EC50 [13]: > 120 µM (not active)
EC50 [14]: 38.8 µM (active)
EC50 [16]: 59.6 µM (active)

CC(=O)Nc1ccccc1/C=C/c1ccc2c(C)cc(C)c(O)c2n1
EC50 [17]: 31.3 µM (active)
EC50 [18]: > 38 µM (not active)
IC50 [1]: 10.9 µM (not active)

CCCn1c(=O)c(C(=O)Nc2ccccc2)c(O)c2ccccc21
IC50 [2]: 9.48 µM (active)

Cc1ccc(S(=O)(=O)N2CCN(C(=O)c3cc(O)nc4ccccc34)CC2)c(C)c1
IC50 [2]: > 79 µM (inactive)

Cc1ccc(-n2nc(-c3ccco3)cc2C(=O)O)cc1
IC50 [5]: 3.82 µM (active)

CC[C@H](C)Cc1cn([C@@H](CCCCN)C(=O)NCCCCCCCCCCC(=O)N2CCNCC2)nn1
IC50 [19]: > 20 µM (inactive)
AC50 [20]: 13.2 µM (active)

CC1=C(/C=C/C(=O)O)C(C)(C)CCC1
EC50 [16]: > 260 µM (inactive)

CCOC(=O)NC(C(F)(F)F)(C(F)(F)F)P(=O)(c1ccccc1)c1ccccc1
IC50 [1]: > 50 µM (not active)

O=C(Nc1cccc(Cl)c1)N1CCC(CO)(CCOc2ccccc2)CC1
EC50 [16]: 45 µM (active)

COc1ccc(CCN2C(=O)C3C(C2=O)C2C=CC3C23CC3)cc1OC (stereo not given)
EC50 [16]: > 260 µM (inactive)

CC(=O)N(CCN(C)C)c1nc2cc3c(cc2s1)OCCO3
AC50 [20]: 11.4 µM (active)

CCCCCc1c(O)nc(SCCN(C)C)nc1O
EC50 [3]: 4.22 µM (active)

COCCN1CCN(c2c3c(nc4cc(-c5cccc(F)c5)nn24)CCC3)CC1
IC50 [2]: 6.93 µM (active)

COc1ccc(-c2cc3nc(NCCCN(C)C)n(C)c(=O)c3s2)c(C)c1
AC50 [20]: 29.3 µM (active)

NC(=O)c1cc2ccccc2o/c1=N\NC(=O)c1ccc(F)cc1
IC50 [2]: > 79 µM (inactive)

Cc1sc2nc(C)n(/N=C/c3ccc(O)cc3O)c(=O)c2c1C
EC50 [16]: > 260 µM (inactive)

Cc1ccc(S(=O)(=O)Nc2ccc3c(c2)C(=O)N([C@@H](C)CO)C[C@H](C)[C@H](CN(C)Cc2ccc(C(F)(F)F)cc2)OCCCC[C@@H](C)O3)cc1
AC50 [21]: 7.03 µM (active)
AC50 [22]: > 70 µM (inactive)

COc1ccc(/C=N/NC(=O)C2COc3ccccc3O2)cc1OC (stereo not given)
EC50 [3]: 0.841 µM (active)

O=C(Oc1ccc(/C=N/NC(=O)c2ccccc2O)cc1)c1ccccc1
IC50 [5]: 8.03 µM (active)

COc1cc(/C=C2/SC(=S)N(CCC(=O)Nc3ccc(C(=O)O)cc3)C2=O)cc(OC)c1OC
IC50 [5]: 6.91 µM (active)
